Test results from ChEMBL document CHEMBL4340534 (Bioorg Med Chem Lett, 2019).
In brackets after ≈: the same amount, converted by molar mass. Activity calls are given as the source filed them. The calls are words filed in the database; no cut-off is given here.

Assays:
DNA gyrase = DNA gyrase (Escherichia coli, UniProt P0AES4+P0AES6); experiment: Inhibition of Escherichia coli his-tagged DNA gyrase supercoiling activity using pBR322 DNA in presence of ATP incubated for 1 hr by H19 dye based high throughput DNA gyrase assay; type: protein-complex assay
Escherichia coli [1] = experiment: Antibacterial activity against tolC deficient Escherichia coli Top10; type: functional
Escherichia coli [2] = experiment: Antibacterial activity against tolC deficient Escherichia coli Top10 harboring GyrB E793K mutant; type: functional
Escherichia coli [3] = experiment: Antibacterial activity against Escherichia coli 7623; type: functional
Escherichia coli [4] = experiment: Antibacterial activity against tolC deficient Escherichia coli 7623; type: functional
Klebsiella pneumoniae = experiment: Antibacterial activity against Klebsiella pneumoniae 1161486; type: functional
Acinetobacter baumannii = experiment: Antibacterial activity against Acinetobacter baumannii BM4454; type: functional
[5] = Cytotoxicity against mouse L5178Y cells (TK +/-) assessed as reduction in cell viability incubated for 72 hrs by Cell Titer-Glo assay
[6] = target: Sodium channel protein type 5 subunit alpha (Homo sapiens, UniProt Q14524); experiment: Inhibition of human NaV1.5 expressed in HEK293 cells assessed as decrease in sodium current amplitude at -120 mV holding potential by Qpatch assay; type: ADME, cell-based
Chain of Sodium channel protein type 5 subunit alpha (Q14524 whole entry): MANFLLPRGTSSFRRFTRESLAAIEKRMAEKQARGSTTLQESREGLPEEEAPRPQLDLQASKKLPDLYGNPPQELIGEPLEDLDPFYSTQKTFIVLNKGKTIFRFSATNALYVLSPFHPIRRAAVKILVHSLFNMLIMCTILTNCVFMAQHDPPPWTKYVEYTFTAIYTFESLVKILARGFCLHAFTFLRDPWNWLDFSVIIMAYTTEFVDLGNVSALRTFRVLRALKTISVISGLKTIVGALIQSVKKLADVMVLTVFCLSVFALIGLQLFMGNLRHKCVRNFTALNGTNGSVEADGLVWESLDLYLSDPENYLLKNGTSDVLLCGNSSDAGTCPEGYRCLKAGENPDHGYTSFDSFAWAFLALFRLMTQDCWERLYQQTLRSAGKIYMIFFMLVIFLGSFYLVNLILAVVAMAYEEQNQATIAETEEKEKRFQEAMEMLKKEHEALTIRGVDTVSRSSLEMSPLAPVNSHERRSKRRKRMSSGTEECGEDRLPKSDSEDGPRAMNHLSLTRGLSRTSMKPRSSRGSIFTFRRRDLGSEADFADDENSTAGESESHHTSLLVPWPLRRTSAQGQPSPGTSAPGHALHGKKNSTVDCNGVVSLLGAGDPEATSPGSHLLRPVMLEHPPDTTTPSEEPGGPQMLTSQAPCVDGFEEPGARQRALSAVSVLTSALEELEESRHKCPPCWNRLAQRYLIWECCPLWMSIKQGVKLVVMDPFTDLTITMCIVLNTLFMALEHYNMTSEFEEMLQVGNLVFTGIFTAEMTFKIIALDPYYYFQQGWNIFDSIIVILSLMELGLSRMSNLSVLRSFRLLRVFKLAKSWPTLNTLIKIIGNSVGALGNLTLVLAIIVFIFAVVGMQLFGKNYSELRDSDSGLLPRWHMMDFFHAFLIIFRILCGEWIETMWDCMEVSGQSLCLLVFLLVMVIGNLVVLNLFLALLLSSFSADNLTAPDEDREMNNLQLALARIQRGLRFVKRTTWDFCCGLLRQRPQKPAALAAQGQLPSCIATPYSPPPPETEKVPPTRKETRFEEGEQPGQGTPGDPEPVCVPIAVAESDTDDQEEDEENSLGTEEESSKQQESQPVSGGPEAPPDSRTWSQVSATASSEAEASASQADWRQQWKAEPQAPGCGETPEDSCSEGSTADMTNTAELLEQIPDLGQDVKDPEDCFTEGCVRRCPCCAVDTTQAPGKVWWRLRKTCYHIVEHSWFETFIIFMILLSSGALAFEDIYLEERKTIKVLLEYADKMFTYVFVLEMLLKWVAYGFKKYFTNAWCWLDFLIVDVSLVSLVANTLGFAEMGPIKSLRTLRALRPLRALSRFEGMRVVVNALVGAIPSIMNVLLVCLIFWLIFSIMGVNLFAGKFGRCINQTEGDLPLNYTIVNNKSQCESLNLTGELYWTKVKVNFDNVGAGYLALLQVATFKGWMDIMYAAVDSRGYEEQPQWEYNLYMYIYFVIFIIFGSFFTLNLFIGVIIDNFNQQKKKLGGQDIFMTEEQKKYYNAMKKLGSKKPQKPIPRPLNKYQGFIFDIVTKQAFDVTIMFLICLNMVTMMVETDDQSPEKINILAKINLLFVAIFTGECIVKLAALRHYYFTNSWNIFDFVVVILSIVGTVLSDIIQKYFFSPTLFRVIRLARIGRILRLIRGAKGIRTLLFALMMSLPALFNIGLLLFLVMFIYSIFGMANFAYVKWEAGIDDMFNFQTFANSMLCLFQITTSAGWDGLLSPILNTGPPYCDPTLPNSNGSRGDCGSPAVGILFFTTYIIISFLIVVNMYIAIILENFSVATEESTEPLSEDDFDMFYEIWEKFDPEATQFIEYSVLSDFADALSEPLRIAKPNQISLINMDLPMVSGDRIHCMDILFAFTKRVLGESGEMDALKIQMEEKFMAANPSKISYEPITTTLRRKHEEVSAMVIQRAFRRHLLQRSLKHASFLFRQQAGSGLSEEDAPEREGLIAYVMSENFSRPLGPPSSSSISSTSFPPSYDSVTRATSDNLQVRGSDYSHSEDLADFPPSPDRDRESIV

Pseudomonas aeruginosa = experiment: Antibacterial activity against Pseudomonas aeruginosa; type: functional
[7] = target: DNA gyrase (Klebsiella pneumoniae) (UniProt W1DID1+A0A080SQT2); experiment: Inhibition of Klebsiella pneumoniae DNA gyrase assessed as increase in single and double strand DNA cleavage products; type: protein-complex assay
[8] = Inhibition of Escherichia coli DNA topoisomerase 4 using interlinked kDNA as substrate after 30 mins by ethidium bromide staining-based agarose gel electrophoresis method
Escherichia coli [9] = experiment: Inhibition of Escherichia coli DNA topoisomerase 4 assessed as induction of enzyme-mediated DNA cleavage breaks
[10] = target: DNA topoisomerase 2-alpha (Homo sapiens, UniProt P11388); experiment: Inhibition of human DNA topoisomerase 2 alpha using interlinked kDNA as substrate after 30 mins by ethidium bromide staining-based agarose gel electrophoresis method
Chain of DNA topoisomerase 2-alpha (P11388 whole entry): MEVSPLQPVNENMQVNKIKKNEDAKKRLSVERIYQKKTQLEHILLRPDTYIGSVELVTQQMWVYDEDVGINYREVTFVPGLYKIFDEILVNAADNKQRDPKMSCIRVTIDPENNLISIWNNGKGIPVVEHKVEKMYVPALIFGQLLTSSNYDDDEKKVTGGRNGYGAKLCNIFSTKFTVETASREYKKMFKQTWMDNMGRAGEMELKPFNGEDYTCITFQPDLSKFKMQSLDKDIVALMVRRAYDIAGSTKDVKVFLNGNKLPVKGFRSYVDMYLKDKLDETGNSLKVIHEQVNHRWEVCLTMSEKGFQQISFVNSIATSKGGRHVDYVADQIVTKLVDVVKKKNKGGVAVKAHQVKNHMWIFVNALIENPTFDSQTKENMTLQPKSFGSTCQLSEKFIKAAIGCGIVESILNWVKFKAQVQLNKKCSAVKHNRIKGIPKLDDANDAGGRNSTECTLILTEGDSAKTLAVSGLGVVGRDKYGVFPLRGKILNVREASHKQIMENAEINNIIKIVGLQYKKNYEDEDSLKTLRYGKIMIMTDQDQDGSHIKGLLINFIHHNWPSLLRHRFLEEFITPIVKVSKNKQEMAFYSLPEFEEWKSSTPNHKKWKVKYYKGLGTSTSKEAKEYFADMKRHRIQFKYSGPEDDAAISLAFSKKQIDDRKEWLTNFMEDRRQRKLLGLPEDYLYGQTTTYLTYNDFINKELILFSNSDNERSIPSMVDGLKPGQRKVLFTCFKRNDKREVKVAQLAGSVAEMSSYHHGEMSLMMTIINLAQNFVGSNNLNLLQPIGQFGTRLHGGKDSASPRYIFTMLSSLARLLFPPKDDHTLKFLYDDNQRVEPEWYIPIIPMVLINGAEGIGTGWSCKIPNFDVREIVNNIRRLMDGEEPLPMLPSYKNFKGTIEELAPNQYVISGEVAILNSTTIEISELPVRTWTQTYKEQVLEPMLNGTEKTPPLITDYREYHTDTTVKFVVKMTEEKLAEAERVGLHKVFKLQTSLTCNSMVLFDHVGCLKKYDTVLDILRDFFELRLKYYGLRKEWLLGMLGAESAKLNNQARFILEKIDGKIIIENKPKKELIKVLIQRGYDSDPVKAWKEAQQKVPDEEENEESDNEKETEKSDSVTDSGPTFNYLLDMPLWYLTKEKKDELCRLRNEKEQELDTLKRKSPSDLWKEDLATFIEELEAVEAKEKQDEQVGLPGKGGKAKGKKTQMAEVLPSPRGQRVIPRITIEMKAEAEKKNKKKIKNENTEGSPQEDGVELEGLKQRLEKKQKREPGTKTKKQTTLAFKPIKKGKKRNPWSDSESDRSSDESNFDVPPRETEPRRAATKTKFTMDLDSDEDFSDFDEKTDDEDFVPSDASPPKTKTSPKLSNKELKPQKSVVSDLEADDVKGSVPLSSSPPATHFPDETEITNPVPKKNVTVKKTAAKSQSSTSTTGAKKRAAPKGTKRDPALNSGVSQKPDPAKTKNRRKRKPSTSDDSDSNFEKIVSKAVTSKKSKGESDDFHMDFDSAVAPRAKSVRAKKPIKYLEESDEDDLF

| Compound | IC50 (DNA gyrase) [nM] | MIC (Escherichia coli [1]) [µg/mL] | MIC (Escherichia coli [2]) [µg/mL] | MIC (Escherichia coli [3]) [µg/mL] | MIC (Escherichia coli [4]) [µg/mL] | MIC (Klebsiella pneumoniae) [µg/mL] | MIC (Acinetobacter baumannii) [µg/mL] | CC50 at 72 h ([5]; l5178y) [µg/mL] | IC50 [6] [µM] | CC50 at 72 h ([5]; L5178Y cells (TK +/-)) [µg/mL] | MIC (Pseudomonas aeruginosa) [µg/mL] | inhibition [7] | IC50 [8] [µM] | inhibition (Escherichia coli [9]) | IC50 [10] [µM] |
| --- | --- | --- | --- | --- | --- | --- | --- | --- | --- | --- | --- | --- | --- | --- | --- |
| Cc1sc(-c2ccccc2Cl)cc1C(=O)N[C@@H](CN)c1ccccc1 | 40 | ≤ 0.125 | 4 (≈ 10.8 µM) | 8 (≈ 21.6 µM) | ≤ 0.125 | 32 (≈ 86.3 µM) | 4 (≈ 10.8 µM) | 5 (≈ 13.5 µM) | 13 |  |  |  |  |  |  |
| Cn1nc(O[C@@H](CN)c2ccccc2)c2cc(-c3ccccc3Cl)ccc21 | 5000 | 2 (≈ 5.29 µM) | 2 (≈ 5.29 µM) | > 128 | 2 (≈ 5.29 µM) | > 128 | 64 (≈ 169 µM) |  |  |  |  |  |  |  |  |
| NC[C@@H](c1ccccc1)n1cnc2c(-c3ccccc3Cl)csc2c1=O | 2000 | 2 (≈ 5.24 µM) | 16 (≈ 41.9 µM) | > 128 | 2 to 4 (≈ 5.24 to 10.5 µM) | > 128 | > 128 |  |  | 16 (≈ 41.9 µM) |  |  |  |  |  |
| Cn1nc(NC(CN)c2ccccc2)c2cc(-c3ccccc3Cl)ccc21 (configuration not stated) | 7900 | 4 (≈ 10.6 µM) | 4 (≈ 10.6 µM) | > 128 | 4 (≈ 10.6 µM) | > 128 | 128 (≈ 340 µM) |  |  | 5 (≈ 13.3 µM) |  |  |  |  |  |
| NCC(Oc1noc2ccc(-c3ccccc3Cl)cc12)c1ccccn1 (configuration not stated) | 500 | 0.25 (≈ 0.683 µM) | 8 (≈ 21.9 µM) | 64 (≈ 175 µM) | 0.25 (≈ 0.683 µM) |  | 32 (≈ 87.5 µM) |  |  | 3 (≈ 8.2 µM) |  |  |  |  |  |
| NC[C@H](Nc1nccc2ccc(-c3ccccc3Cl)cc12)c1ccccc1 | 10000 | 2 (≈ 5.35 µM) | 2 (≈ 5.35 µM) | 64 (≈ 171 µM) | 2 (≈ 5.35 µM) | 32 (≈ 85.6 µM) | 32 (≈ 85.6 µM) |  |  | 3 (≈ 8.02 µM) |  |  |  |  |  |
| N=C(N)NC[C@H](Oc1noc2ccc(-c3ccccc3Cl)cc12)c1ccccc1 | 160 | 0.25 (≈ 0.614 µM) | 0.5 (≈ 1.23 µM) | 8 (≈ 19.7 µM) | 0.25 (≈ 0.614 µM) | 16 (≈ 39.3 µM) | 4 (≈ 9.83 µM) | 11 (≈ 27 µM) |  |  | 16 (≈ 39.3 µM) |  |  |  |  |
| NC[C@H](Oc1n[nH]c2ccc(-c3ccccc3Cl)cc12)c1ccccc1 | 1600 | 2 (≈ 5.5 µM) | 2 (≈ 5.5 µM) | 32 (≈ 87.9 µM) | 2 (≈ 5.5 µM) | 32 (≈ 87.9 µM) | 32 (≈ 87.9 µM) |  |  | 3 (≈ 8.25 µM) |  |  |  |  |  |
| NCC(Nc1n[nH]c2ccc(-c3ccccc3Cl)cc12)c1ccccc1 (configuration not stated) | 3200 | 4 (≈ 11 µM) | 4 (≈ 11 µM) | 128 (≈ 353 µM) | 4 (≈ 11 µM) | 64 (≈ 176 µM) | 64 (≈ 176 µM) |  |  | 5 (≈ 13.8 µM) |  |  |  |  |  |
| NC[C@H](Oc1noc2ncc(-c3ccccc3Cl)cc12)c1ccccc1 | 500 | 1 (≈ 2.73 µM) | 16 (≈ 43.7 µM) | 64 (≈ 175 µM) | 1 (≈ 2.73 µM) |  | 64 (≈ 175 µM) |  | 24 | 20 (≈ 54.7 µM) |  |  |  |  |  |
| NC[C@H](Oc1noc2ccc(-c3ccccc3Cl)cc12)c1ccccc1 | 160 | ≤ 0.125 | 2 (≈ 5.48 µM) | 8 to 16 (≈ 21.9 to 43.9 µM) | ≤ 0.125 | ≥ 128 | 8 (≈ 21.9 µM) | 10 (≈ 27.4 µM) | 22 |  | ≥ 128 | Active | 90 | Active | 210 |
| NC[C@H](Oc1noc2ccc(-c3ccccc3Cl)nc12)c1ccccc1 | 1600 | 8 (≈ 21.9 µM) | 16 (≈ 43.7 µM) | > 128 | 4 (≈ 10.9 µM) |  | > 128 | 5 (≈ 13.7 µM) | 16 |  |  |  |  |  |  |
